Assays:
IDO1 [1] = target: T1, IDO1 (Homo sapiens, UniProt P14902); assay: IDO1 Cellular Assay in HeLa Cells Stimulated with IFNγ; format: cell-based; conditions: IFNγ 100 ng/mL, 300 uM L-tryptophan, about 48 hours incubation, fluorescence readout, read-out: IDO1 HeLa Cell Assay, IC50
Protocol: IDO1 Cellular Assay in HeLa Cells Stimulated with IFNγ
HeLa cells were cultured in complete HeLa culture medium (90% EMEM, 10% heat-inactivated fetal bovine serum) and expanded to about 1×10^9 cells. The cells were then collected and frozen down at 1×10^7 cells/vial in 1 mL frozen medium (90% complete HeLa culture medium, 10% DMSO).
Compounds to be tested were serially diluted in ten 3-fold steps in DMSO starting from 10 mM DMSO stocks in Echo low volume plate(s).
Frozen HeLa cells were thawed and transferred into HeLa assay medium (99% complete HeLa culture medium, 1% Pen/Strep) with 20 mL medium/vial of cells. The cells were spun down at 250 g in a table top centrifuge for 5 min and suspended in same volume of HeLa assay medium. The cells were then counted and adjusted to a density of 2×10^5 cells/mL in HeLa assay medium. Sterile L-tryptophan were added to the cells with final concentration of 300 uM L-tryptophan. A small aliquot (2 mL/plate) of HeLa cells were set aside and were not treated with IFNγ, to serve as the Max-E control.
HeLa cells with and without IFNγ were dispensed to the respective wells of 384-well assay plates containing the compounds. The plates were incubated for about 48 hours at a 37° C., 5% CO2 incubator. Afterwards, 12 μL of 0.5 M methyl isonipecotate in dimethyl sulfoxide were added into each well and the plates were sealed and incubated at 37° C. without CO2 overnight. The plates were centrifuged for 1 min at 200×g. The resulting fluorescence was measured in a Spectramax plate reader (Molecular Devices) with a 400 nm excitation filter and a 510 nm emission filter.
Potencies were calculated by […] least squares fit to the four parameter logistic IC50 equation.

IDO1 [2] = target: T1, IDO1; assay: IDO1 Human Whole Blood Assay; format: cell-based; conditions: LPS and IFNγ 100 ng/mL, 18 h, kynurenine by LC/MS/MS
Protocol: IDO1 Human Whole Blood Assay
Compounds to be tested were serially diluted in ten 3-fold steps in DMSO starting from 10 mM. 3 μL of compound dilutions or DMSO alone were then dispensed from the dilution plate into a polypropylene 96-well assay plate containing 97 μL of RPMI medium using an Echo 555 acoustic liquid handler (Labcyte). LPS and IFNγ was prepared in RPMI medium to a 10× of final conc. (1000 ng/mL), final concentration is 100 ng/mL.
Human whole blood was drawn in sodium heparin coated tubes from healthy internal donors. 240 μL of blood was transferred to each of the wells of a v-bottom 96 well plate. 30 μL of compound was transferred from intermediate dilution plate, and incubated for 15 min. 30 μL from stimulants was then transferred to blood and mixed thoroughly. Plate was covered with breathable membrane and incubated at 37° C. for overnight (18 h).
On day 2, isotope labeled standard solutions of kunurenine and tryptophan was made in water at 10× concentration and 30 μL was added to the blood at […] concentration. The assay plates were centrifuged at 300×G for 10 min with no brake to separate plasma from red blood cells. 60 μL of plasma samples was removed without disturbing red blood cells. Plasma was diluted with RPMI in 1:1 ratio and proteins were precipitated out with two volumes of Acetonitrile. The plates were centrifuged at 4000×G for 60 min. 20 μL of supernatant was carefully transferred to a 384 well plate containing 40 μL of 0.1% formic acid in water and analyzed by LC/MS/MS.
LC/MS/MS analyses were performed using Thermo Fisher's LX4-TSQ Quantum Ultra system. This system consists of four Agilent binary high-performance liquid chromatography (HPLC) pumps and a TSQ Quantum Ultra triple quadrupole MS/MS instrument. For each sample, 5 μL were injected onto an Atlantis T3 column (2.1 mm×150 mm, 3 μm particle size) from Waters. The mobile phase gradient pumped at 0.8 mL/min was used to elute the analytes from the column at 25° C. The elution started at 0% B increasing linearly to 25% B at 6.5 min, holding at 25% for 1 min, re-equilibrating to 10 min. Mobile phase A consisted of 0.1% formic acid in water. Mobile phase B consisted of 0.1% of formic acid in acetonitrile. Data was acquired in positive mode using a HESI interface. The operational parameters for the TSQ Quantum Ultra instrument were a spray voltage of 4000 V, capillary temperature of 380° C., vaporizer temperature 400° C., shealth gas 60 arbitrary units, Aux gas 20 arbitrary units, tube lens 85 and collision gas 1.2 mTorr. SRM chromatograms of kynurenine (QI: 209.2>Q3:94.0) and internal standard (QI: 215.3>Q3:98.2) were collected for 90 sec. The peak area was integrated by Xcalibur Quan software. The ratios between the kynurenine generated in the reaction and 2D6-Kynurenine spiked-in internal standard were used to generate percentage inhibition and IC50 values. Compounds were titrated and IC50's were calculated by 4 parameter sigmoidal curve fitting formula.

T1 sequence (P14902 whole entry): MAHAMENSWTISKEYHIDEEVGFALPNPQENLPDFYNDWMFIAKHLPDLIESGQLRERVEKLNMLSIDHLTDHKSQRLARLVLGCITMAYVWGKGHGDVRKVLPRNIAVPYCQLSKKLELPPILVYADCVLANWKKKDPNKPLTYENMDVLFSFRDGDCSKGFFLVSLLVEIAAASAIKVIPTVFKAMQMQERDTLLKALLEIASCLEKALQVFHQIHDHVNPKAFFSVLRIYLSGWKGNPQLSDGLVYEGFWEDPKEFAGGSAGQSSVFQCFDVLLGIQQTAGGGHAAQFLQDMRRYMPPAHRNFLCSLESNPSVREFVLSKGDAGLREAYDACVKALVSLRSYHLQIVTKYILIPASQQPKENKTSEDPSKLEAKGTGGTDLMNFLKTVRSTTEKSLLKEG

N#Cc1cccc(C(=O)Nc2ccc(C3(c4nc5cc(Cl)ccc5[nH]4)CCC3)cn2)c1 [Ex. 30, N-(5-[1-(5-chloro-1H-benzimidazol-2-yl)cyclobutyl]pyridin-2-yl}-3-cyanobenzamide]
IC50 (IDO1 [1]): 6.58 nM | IC50 (IDO1 [2]): 312 nM

N#Cc1cccc(C(=O)Nc2ccc(C3(c4nc5cccc(CCO)c5[nH]4)CCC3)cn2)c1 [Ex. 34, 3-Cyano-N-(5-(1-(7-(2-hydroxyethyl)-1H-benzo[d]imidazol-2-yl)cyclobutyl)pyridin-2-yl)benzamide]
IC50 (IDO1 [1]): 24.8 nM | IC50 (IDO1 [2]): 3290 nM

N#Cc1cnc2nc(C3(c4ccc(NC(=O)c5cccc(Cl)c5)nc4)CCC3)[nH]c2c1 [Ex. 2, 3-Chloro-N-(5-(1-(6-cyano-1H-imidazo[4,5-b]pyridin-2-yl)cyclobutyl)pyridin-2-yl)benzamide]
IC50 (IDO1 [1]): 13.6 nM | IC50 (IDO1 [2]): 387 nM

Cc1cc2nc(C3(c4ccc(NC(=O)c5cccc(Cl)c5)nc4)CCC3)[nH]c2cc1F [Ex. 27, 3-chloro-N-{5-[1-(6-fluoro-5-methyl-1H-benzimidazol-2-yl)cyclobutyl]pyridin-2-yl}benzamide]
IC50 (IDO1 [1]): 3.47 nM | IC50 (IDO1 [2]): 496 nM

O=C(Nc1ccc(C2(c3nc4ncc(C(F)(F)F)cc4[nH]3)CCC2)cn1)c1cccc(Cl)c1 [Ex. 7, 3-chloro-N-(5-{1-[6-(trifluoromethyl)-1H-imidazo[4,5-b]pyridin-2-yl]cyclobutyl}pyridin-2-yl)benzamide]
IC50 (IDO1 [1]): 5.66 nM | IC50 (IDO1 [2]): 273 nM

O=C(Nc1ccc(C2(c3nc4cccc(CCCO)c4[nH]3)CCC2)cn1)c1cccc(Cl)c1 [Ex. 32, 3-Chloro-N-(5-(1-(7-(3-hydroxypropyl)-1H-benzo[d]imidazol-2-yl)cyclobutyl)pyridin-2-yl)benzamide]
IC50 (IDO1 [1]): 5.4 nM | IC50 (IDO1 [2]): 446 nM

O=C(Nc1ccc(C2(c3nc4ncc(Br)cc4[nH]3)CCC2)cn1)c1cccc(Cl)c1 [Ex. 1, N-(5-(1-(6-bromo-1H-imidazo[4,5-b]pyridin-2-yl)cyclobutyl)pyridin-2-yl)-3-chlorobenzamide]
IC50 (IDO1 [1]): 10.1 nM | IC50 (IDO1 [2]): 159 nM

O=C(Nc1ccc(C2(c3nc4cccc(F)c4[nH]3)CCC2)cn1)c1cccc(Cl)c1 [Ex. 25, 3-chloro-N-{5-[1-(7-fluoro-1H-benzimidazol-2-yl)cyclobutyl]pyridin-2-yl}benzamide]
IC50 (IDO1 [1]): 7.21 nM | IC50 (IDO1 [2]): 691 nM

O=C(Nc1ccc(C2(c3nc4cc(F)c(F)cc4[nH]3)CCC2)cn1)c1cccc(Cl)c1 [Ex. 16, 3-chloro-N-{5-[1-(5,6-difluoro-1H-benzimidazol-2-yl)cyclobutyl]pyridin-2-yl}benzamide]
IC50 (IDO1 [1]): 7.77 nM | IC50 (IDO1 [2]): 889 nM

O=C(Nc1ccc(C2(c3nc4cc(F)cc(F)c4[nH]3)CCC2)cn1)c1cccc(Cl)c1 [Ex. 17, 3-chloro-N-{5-[1-(5,7-difluoro-1H-benzimidazol-2-yl)cyclobutyl]pyridin-2-yl}benzamide]
IC50 (IDO1 [1]): 4.9 nM | IC50 (IDO1 [2]): 829 nM

O=C(Nc1ccc(C2(c3nc4cccc(CO)c4[nH]3)CCC2)cn1)c1cccc(Cl)c1 [Ex. 24, 3-chloro-N-(5-{1-[7-(hydroxymethyl)-1H-benzimidazol-2-yl]cyclobutyl}pyridin-2-yl)benzamide]
IC50 (IDO1 [1]): 6.65 nM | IC50 (IDO1 [2]): 826 nM

Cc1ccc2nc(C3(c4ccc(NC(=O)c5cccc(Cl)c5)nc4)CCC3)[nH]c2c1 [Ex. 13, 3-chloro-N-{5-[1-(6-methyl-1H-benzimidazol-2-yl)cyclobutyl]pyridin-2-yl}benzamide]
IC50 (IDO1 [1]): 2.79 nM | IC50 (IDO1 [2]): 125 nM

From US11103493B2, “Substituted pyridinyl compounds as indoleamine 2,3-dioxygenase (IDO) inhibitors” (Merck Sharp & Dohme Corp., priority 2017, dated 2021)
